Source: paper PMC7048932, “Examining sterically demanding lysine analogs for histone lysine methyltransferase catalysis” (Scientific Reports, 2020)

Experiments:
[1] = target: T1, SETD8 (Homo sapiens, UniProt Q9NQR1); experiment: MALDI-TOF MS methylation assay of H4K20 peptides with SETD8; type: biochemical; details: peptide 100 µM, SETD8 2 µM, SAM 200 µM, 50 mM Tris pH 8.0, 1 h, 37 °C, MALDI-TOF MS
T1 construct: His6 (N); made in house; host or cells: E. coli BL21 (DE3)pLysS-rosetta
T1 sequence (Q9NQR1 1-393): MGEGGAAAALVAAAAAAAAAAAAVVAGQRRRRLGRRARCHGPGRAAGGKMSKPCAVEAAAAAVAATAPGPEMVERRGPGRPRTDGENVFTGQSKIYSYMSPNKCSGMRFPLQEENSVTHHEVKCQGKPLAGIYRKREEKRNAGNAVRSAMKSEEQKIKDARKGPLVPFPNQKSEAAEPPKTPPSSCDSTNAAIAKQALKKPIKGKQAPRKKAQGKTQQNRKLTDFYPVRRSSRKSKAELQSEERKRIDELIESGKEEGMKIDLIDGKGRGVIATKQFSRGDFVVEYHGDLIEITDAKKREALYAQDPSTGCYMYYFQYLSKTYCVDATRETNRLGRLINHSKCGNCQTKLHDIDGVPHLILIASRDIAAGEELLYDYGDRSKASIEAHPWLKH
Description: MALDI-MS methyltransferases activity experiments were performed using a Bruker instrument in the reflectron positive mode. […] In case of G9a and GLP, similar conditions were used, except (500 µM) of SAM was added to the reaction mixture. Samples were incubated in an Eppendorf vial 1.5 mL using thermomixer for 1 h at 37 °C. A 5 µL aliquot of the solution was mixed with 5 µL of MeOH, after which 5 µL of this mixture was mixed with 5 µL of α-cyano-4-hydroxycinamic acid matrix (CHCA, 5 mg/mL in 125:125 µL acetonitrile/water). The spots were placed on a stainless steel MALDI plate (MS 96 target ground steel BC of Bruker, Germany). The mass corresponding to one monomethylation observed as +14 Da, dimethylation observed as +28 Da and trimethylation observed as +42 Da. The enzymatic activity was determined by taking the peak areas of each methylation state, including all isotopes and adducts, and was annotated using FlexAnalysis software (Bruker Daltonics, Germany). […] Methylated peptide substrates were repeated five times and the unmethylated substrates were triplicated. Sequences of the examined peptides are given in (Supplementary Table 1).

[2] = target: T1, SETD8; experiment: Competition study between H4K20 and analog peptides with SETD8 (MALDI-MS); type: biochemical; details: SETD8, equimolar H4K20 (100 µM) and H4KCP20 (100 µM), SAM 200 µM, 1 h, 37 °C
From the text: Next, we carried out competition studies between histone peptides that bear lysine and its analogs. In the presence of SETD8, SAM and equimolar amounts of H4K20 and H4KCP20, we observed the formation of both monomethylated products, albeit a comparatively larger degree of monomethylation of H4K20 was found (70% of H4K20me, 40% of H4KCP20me). […] It is also possible that subtle differences in sterics and electronics of H4KCP20 when compared to H4K20 do contribute to observed differences in the degree of methylation in the competition experiment.
Figure S31. MALDI-MS based assay showing ( a) SETD8-catalyzed monomethylation of […]
(b) SETD8-catalyzed methylation of H4K20 (100 µM) in the presence of H4F 3a20 (100 µM) and SAM (200 µM) after 1 h at 37 °C; ( c) SETD8-catalyzed methylation of H4K20 (100 µM) in the presence of H4F 4a20 (100 µM) and SAM (200 µM) after 1 h at 37 °C; ( d) SETD8-catalyzed methylation of H4K20 (100 µM) in the presence of H4A p20 (100 µM) and SAM (200 µM) after 1 h at 37 °C; ( e) SETD8-catalyzed methylation of H4K20 (100 µM) in the presence of […]
(1 picture or pasted object on this page, not shown here)

[3] = system: SETD7; experiment: MALDI-TOF MS methylation assay of H3K4 peptides with SETD7; type: biochemical, human; details: peptide 100 µM, SETD7 2 µM, SAM 200 µM, 1 h, 37 °C
Description: (§1) MALDI-MS methyltransferases activity experiments were performed using a Bruker instrument in the reflectron positive mode. For regular methyltransferase standard conditions experiment which carried out in 30 µL total volume, the mixture contains peptide (100 µM), SAM (200 µM), SETD8 or SETD7 (2 µM), in assay buffer 50 mM Tris at optimal pH 8.0. In case of G9a and GLP, similar conditions were used, except (500 µM) of SAM was added to the reaction mixture. Samples were incubated in an Eppendorf vial 1.5 mL using thermomixer for 1 h at 37 °C. A 5 µL aliquot of the solution was mixed with 5 µL of MeOH, after which 5 µL of this mixture was mixed with 5 µL of α-cyano-4-hydroxycinamic acid matrix (CHCA, 5 mg/mL in 125:125 µL acetonitrile/water). The spots were placed on a stainless steel MALDI plate (MS 96 target ground steel BC of Bruker, Germany). The mass corresponding to one monomethylation observed as +14 Da, dimethylation observed as +28 Da and trimethylation observed as +42 Da. The enzymatic activity was determined by taking the peak areas of each methylation state, including all isotopes and adducts, and was annotated using FlexAnalysis software (Bruker Daltonics, Germany). […] Methylated peptide substrates were repeated five times and the unmethylated substrates were triplicated. Sequences of the examined peptides are given in (Supplementary Table 1).

[4] = system: SETD7; experiment: as above; type: biochemical, human; details: peptide 100 µM, SETD7 10 µM, SAM 1 mM, 1 h and 3 h, 37 °C
[5] = target: T2, GLP (Homo sapiens, UniProt Q9H9B1); experiment: MALDI-TOF MS methylation assay of H3K9 peptides with GLP; type: biochemical; details: peptide 100 µM, GLP 10 µM, SAM 1 mM, 5 h, 37 °C, MALDI-MS
T2 construct: His6 (N); made in house; host or cells: E. coli BL21 (DE3)pLysS-rosetta
T2 sequence (Q9H9B1 1-1298): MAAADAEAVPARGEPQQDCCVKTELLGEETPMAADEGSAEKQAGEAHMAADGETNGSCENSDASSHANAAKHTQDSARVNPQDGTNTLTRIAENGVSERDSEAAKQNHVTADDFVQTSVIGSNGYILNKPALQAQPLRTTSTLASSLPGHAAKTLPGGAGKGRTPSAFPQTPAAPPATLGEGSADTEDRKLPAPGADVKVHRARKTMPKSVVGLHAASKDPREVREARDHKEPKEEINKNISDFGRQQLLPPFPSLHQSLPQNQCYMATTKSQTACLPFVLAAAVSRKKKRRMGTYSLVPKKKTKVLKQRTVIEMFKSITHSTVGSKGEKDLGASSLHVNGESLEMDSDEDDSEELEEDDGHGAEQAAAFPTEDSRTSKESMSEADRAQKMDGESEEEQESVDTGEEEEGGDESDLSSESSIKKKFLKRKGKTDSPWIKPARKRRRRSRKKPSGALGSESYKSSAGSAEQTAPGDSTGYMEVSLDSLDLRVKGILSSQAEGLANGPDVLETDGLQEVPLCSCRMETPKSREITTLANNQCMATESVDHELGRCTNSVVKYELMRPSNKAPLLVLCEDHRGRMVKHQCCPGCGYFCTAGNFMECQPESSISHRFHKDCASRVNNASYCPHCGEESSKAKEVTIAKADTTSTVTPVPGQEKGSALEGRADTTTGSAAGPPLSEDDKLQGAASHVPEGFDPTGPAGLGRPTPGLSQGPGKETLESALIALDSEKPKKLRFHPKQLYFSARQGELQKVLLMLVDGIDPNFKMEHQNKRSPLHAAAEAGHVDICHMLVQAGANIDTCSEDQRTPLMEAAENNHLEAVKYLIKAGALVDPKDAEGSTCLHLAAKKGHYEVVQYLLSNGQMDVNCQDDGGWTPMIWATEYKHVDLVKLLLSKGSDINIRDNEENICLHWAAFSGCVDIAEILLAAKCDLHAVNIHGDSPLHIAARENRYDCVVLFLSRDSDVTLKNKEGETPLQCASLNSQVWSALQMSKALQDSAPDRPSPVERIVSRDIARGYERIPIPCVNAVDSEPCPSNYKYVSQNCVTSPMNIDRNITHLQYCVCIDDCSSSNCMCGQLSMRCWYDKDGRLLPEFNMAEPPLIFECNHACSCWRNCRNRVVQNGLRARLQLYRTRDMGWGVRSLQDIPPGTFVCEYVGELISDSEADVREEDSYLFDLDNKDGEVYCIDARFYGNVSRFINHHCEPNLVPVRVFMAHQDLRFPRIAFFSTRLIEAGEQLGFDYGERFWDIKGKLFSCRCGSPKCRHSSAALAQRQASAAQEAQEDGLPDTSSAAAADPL
Description: as §1, with “Samples were incubated in an Eppendorf vial 1.5 mL using thermomixer for 1 h at 37 °C.” left out

[6] = target: T3, G9a (Homo sapiens, UniProt Q96KQ7); experiment: MALDI-TOF MS methylation assay of H3K9 peptides with G9a; type: biochemical; details: peptide 100 µM, G9a 2 µM, SAM 500 µM, 1 h, 37 °C
T3 construct: His6 (N); made in house; host or cells: E. coli BL21 (DE3)pLysS-rosetta
T3 sequence (Q96KQ7 1-1210): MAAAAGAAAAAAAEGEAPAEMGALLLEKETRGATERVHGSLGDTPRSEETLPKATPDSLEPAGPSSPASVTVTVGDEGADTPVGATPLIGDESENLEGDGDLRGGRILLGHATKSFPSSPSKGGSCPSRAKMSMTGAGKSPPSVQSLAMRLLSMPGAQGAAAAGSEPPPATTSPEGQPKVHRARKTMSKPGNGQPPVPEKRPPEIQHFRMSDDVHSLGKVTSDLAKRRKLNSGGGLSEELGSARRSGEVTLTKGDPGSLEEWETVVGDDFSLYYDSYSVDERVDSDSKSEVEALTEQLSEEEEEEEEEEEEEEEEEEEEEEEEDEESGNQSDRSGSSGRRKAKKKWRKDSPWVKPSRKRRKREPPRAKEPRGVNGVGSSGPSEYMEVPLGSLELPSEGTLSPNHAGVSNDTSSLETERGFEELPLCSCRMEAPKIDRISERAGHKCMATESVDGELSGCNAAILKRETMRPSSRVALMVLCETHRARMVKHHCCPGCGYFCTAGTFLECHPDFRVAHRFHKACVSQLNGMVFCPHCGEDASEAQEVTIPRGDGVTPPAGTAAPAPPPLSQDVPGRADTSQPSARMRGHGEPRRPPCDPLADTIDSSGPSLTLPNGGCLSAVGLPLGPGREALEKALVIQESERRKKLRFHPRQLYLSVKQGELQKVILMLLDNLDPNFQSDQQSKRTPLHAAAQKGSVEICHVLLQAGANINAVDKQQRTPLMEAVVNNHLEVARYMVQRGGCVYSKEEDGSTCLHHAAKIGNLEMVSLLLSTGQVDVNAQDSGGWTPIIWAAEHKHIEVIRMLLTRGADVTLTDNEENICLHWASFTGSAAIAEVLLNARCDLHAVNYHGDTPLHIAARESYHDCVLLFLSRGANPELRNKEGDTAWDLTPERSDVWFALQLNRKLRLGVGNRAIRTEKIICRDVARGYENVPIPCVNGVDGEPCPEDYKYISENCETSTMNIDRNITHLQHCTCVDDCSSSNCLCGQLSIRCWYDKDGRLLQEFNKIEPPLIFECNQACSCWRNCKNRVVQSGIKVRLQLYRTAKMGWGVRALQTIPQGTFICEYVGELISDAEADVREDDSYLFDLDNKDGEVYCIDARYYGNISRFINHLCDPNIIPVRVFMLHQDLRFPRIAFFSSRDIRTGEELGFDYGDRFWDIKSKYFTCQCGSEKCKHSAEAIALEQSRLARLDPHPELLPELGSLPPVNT
Description: as §1

[7] = target: T2, GLP; experiment: NMR assay of GLP-catalyzed methylation of H3K9 peptides; type: biochemical; details: peptide 400 µM, GLP 8 µM, SAM 2 mM, 50 mM Tris-d11.HCl pD 8.0, 1 h, 37 °C

For “GGAKRHRK^20VLRDNIQ [H4K20, reference compound]”, the “SETD8-catalyzed methylation, result in words” value [1] was “quantitative monomethylation” and the “monomethylated product formed in competition experiment” value [2] was 70%.
With “ART(Kcp4)QTARKSTGGKA [H3KCP4, H3K4 peptide bearing cyclopropyllysine at position 4]” the “SETD7-catalyzed methylation, result in words” value [3] was “only traces”, the “SETD7-catalyzed methylation, result in words” value ([3]; listed as H3K CP4) was “traces of monomethylation” and the “SETD7-catalyzed methylation, result in words, high SETD7/SAM” value [4] was “increased amount of the monomethylated H3KCP4me product”. For the same substance, the “SETD7-catalyzed methylation, result in words, high SETD7/SAM” value ([4]; listed as H3K CP4) was “monomethylation”.
In the case of ARTKQTAR(F4a9)STGGKA [H3F4a9], the “GLP-catalyzed methylation, result in words, increased GLP/SAM” value [5] is reported as “lack of methylation”, the “G9a-catalyzed methylation, result in words” value [6] is reported as “lack of methylation” and the “GLP-catalyzed methylation by 1H NMR / 1H-13C HSQC, result in words” value [7] is reported as “not methylated”.
